Measurements reported in BindingDB's records for patent US20240270732 (Chengdu Biobel Biotechnology Co., 2024).

Target: T1, Receptor-interacting serine/threonine-protein kinase 1 (Homo sapiens, UniProt Q13546)
T1 sequence (Q13546 whole entry): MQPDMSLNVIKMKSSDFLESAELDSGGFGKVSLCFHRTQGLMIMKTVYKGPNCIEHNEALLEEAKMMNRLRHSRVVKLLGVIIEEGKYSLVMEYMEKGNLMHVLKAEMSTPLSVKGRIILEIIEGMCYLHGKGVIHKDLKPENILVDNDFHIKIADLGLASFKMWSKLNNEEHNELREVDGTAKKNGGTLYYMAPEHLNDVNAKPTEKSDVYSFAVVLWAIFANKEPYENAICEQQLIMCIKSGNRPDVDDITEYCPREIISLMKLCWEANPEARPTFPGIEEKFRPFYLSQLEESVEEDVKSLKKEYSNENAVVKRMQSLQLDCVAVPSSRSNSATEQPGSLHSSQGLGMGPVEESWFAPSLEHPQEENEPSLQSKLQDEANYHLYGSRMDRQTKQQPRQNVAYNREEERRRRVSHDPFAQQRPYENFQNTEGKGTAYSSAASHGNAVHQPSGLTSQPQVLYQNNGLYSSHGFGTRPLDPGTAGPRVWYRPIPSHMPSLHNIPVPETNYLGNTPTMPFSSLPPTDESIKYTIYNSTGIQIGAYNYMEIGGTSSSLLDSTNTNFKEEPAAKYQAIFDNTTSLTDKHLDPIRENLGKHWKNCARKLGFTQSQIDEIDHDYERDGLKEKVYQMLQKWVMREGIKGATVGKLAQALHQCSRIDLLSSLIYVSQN
Experiment: Inhibitory Activity Assay
Procedure: The compound of the present invention and the control compound were dissolved in the assay buffer (50 mM Hepes pH 7.5, 50 mM NaCl, 30 mM MgCl2, 1 mM DTT, 0.02% CHAPS, 0.5 mg/mL BSA), and diluted in a ratio of 1:1.5 using a 22-point titration (high concentration 2 μM), and then added to a 384-well plate. […] After completion of the reaction, 5 μL of ADP-Glo reagent containing 0.02% CHAPS was added to each well and incubated at room temperature for 1 h to terminate the kinase reaction and use up all remaining ATP. Then, 5 μL of ADP-Glo detection solution containing 0.02% CHAPS was added to each well and incubated at room temperature for 30 min to measure the emittance intensity.

Row | IC50 | SMILES
1 | 13.3 nM | C[C@H]1Oc2ccc(C#CCN3CCN(CC#Cc4ccc5c(c4)N(C)C(=O)[C@@H](NC(=O)c4cnn(Cc6ccccc6)c4)[C@@H](C)O5)CC3)cc2N(C)C(=O)[C@H]1NC(=O)c1cnn(Cc2ccccc2)c1 [US20240270732, Compound I-48]
2 | 2.95 nM | C[C@H]1Oc2ccc(C#CCN3CCN(CC#Cc4ccc5c(c4)N(C)C(=O)[C@@H](NC(=O)c4ncn(Cc6ccccc6)n4)CO5)CC3)cc2N(C)C(=O)[C@H]1NC(=O)c1ncn(Cc2ccccc2)n1 [US20240270732, Compound I-31]
3 | 18.2 nM | C[C@H]1Oc2ccc(C#CCN3CCN(CC#Cc4ccc5c(c4)N(C)C(=O)[C@@H](NC(=O)c4n[nH]c(Cc6cccc(O)c6)n4)[C@@H](C)O5)CC3)cc2N(C)C(=O)[C@H]1NC(=O)c1n[nH]c(Cc2cccc(O)c2)n1 [US20240270732, Compound I-70]
4 | 7.91 nM | C[C@H]1Oc2ccc(C#CCOCCOCCOCCOCCOCC#Cc3ccc4c(c3)N(C)C(=O)[C@@H](NC(=O)c3ncn(Cc5ccccc5)n3)CO4)cc2N(C)C(=O)[C@H]1NC(=O)c1ncn(Cc2ccccc2)n1 [US20240270732, Compound I-86]
5 | 14.9 nM | C[C@H]1Oc2ccc(C#CCN3CCN(CC#Cc4ccc5c(c4)N(C)C(=O)[C@@H](NC(=O)c4ncc(Cc6ccccc6)o4)[C@@H](C)O5)CC3)cc2N(C)C(=O)[C@H]1NC(=O)c1ncc(Cc2ccccc2)o1 [US20240270732, Compound I-44]
6 | 8.03 nM | C#CCOCCOCCOCCOCCOCC#Cc1ccc2c(c1)N(C)C(=O)[C@@H](NC(=O)c1ncn(Cc3ccccc3)n1)[C@@H](C)O2 [US20240270732, Compound I-84-2]
7 | 7.99 nM | C[C@H]1Oc2ccc(C#Cc3cccc([N+](=O)[O-])c3)cc2N(C)C(=O)[C@H]1NC(=O)c1ncn(Cc2ccccc2)n1 [US20240270732, Compound I-116]
8 | 1.88 nM | COCCOCCOCCOCCOCC#Cc1ccc2c(c1)N(C)C(=O)[C@@H](NC(=O)c1ncn(Cc3ccccc3)n1)CO2 [US20240270732, Compound I-102]
9 | 6.16 nM | CN1C(=O)[C@@H](NC(=O)c2ncn(Cc3ccccc3)n2)COc2ccc(C#CCN3CCN(CC#CC#CCN4CCN(CC#Cc5ccc6c(c5)N(C)C(=O)[C@@H](NC(=O)c5ncn(Cc7ccccc7)n5)CO6)CC4)CC3)cc21 [US20240270732, Compound I-94]

More lines, now with the values behind:

Row | SMILES | IC50
10 | C[C@H]1Oc2ccc(C#CCN3CCN(CC#Cc4ccc5c(c4)N(C)C(=O)[C@@H](NC(=O)c4cn(Cc6ccccc6)cn4)CO5)CC3)cc2N(C)C(=O)[C@H]1NC(=O)c1n[nH]c(Cc2ccccc2)n1 [US20240270732, Compound I-9] | 8.72 nM
11 | C#CCN1CCN(CC#Cc2ccc3c(c2)N(C)C(=O)[C@@H](NC(=O)c2ncn(Cc4ccccc4)n2)CO3)CC1 [US20240270732, Compound I-29] | 2.88 nM
12 | C[C@@H]1Oc2ccc(C#CCN3CCN(CC#Cc4ccc5c(c4)N(C)C(=O)[C@@H](NC(=O)c4n[nH]c(Cc6ccccc6)n4)[C@H](C)O5)CC3)cc2N(C)C(=O)[C@H]1NC(=O)c1n[nH]c(Cc2ccccc2)n1 [US20240270732, Compound I-19] | 62.3 nM
13 | C#CCN1CCN(CC#Cc2ccc3c(c2)N(C)C(=O)[C@@H](NC(=O)c2ncc(Cc4ccccc4)o2)[C@@H](C)O3)CC1 [US20240270732, Compound I-43] | 12.7 nM
14 | C[C@H]1Oc2ccc(C#CCN3CCN(CC#Cc4ccc5c(c4)N(C)C(=O)[C@@H](NC(=O)c4nnn(Cc6ccccc6)n4)[C@@H](C)O5)CC3)cc2N(C)C(=O)[C@H]1NC(=O)c1n[nH]c(Cc2ccccc2)n1 [US20240270732, Compound I-6] | 11.2 nM
15 | C[C@H]1Oc2ccc(C#CCN3CCN(CC#Cc4ccc5c(c4)N(C)C(=O)[C@@H](NC(=O)c4nnn(Cc6ccccc6)n4)CO5)CC3)cc2N(C)C(=O)[C@H]1NC(=O)c1n[nH]c(Cc2ccccc2)n1 [US20240270732, Compound I-7] | 7.81 nM
16 | C#CCN1CCN(CC#Cc2ccc3c(c2)N(C)C(=O)[C@@H](NC(=O)c2nnc(Cc4ccccc4)o2)[C@@H](C)O3)CC1 [US20240270732, Compound I-49] | 16.2 nM
